From patent US5254541A, “(Quinolin-2-ylmethoxy)indole/cyclodextrin complex” (Merck Frosst Canada, Inc., priority 1991, dated 1993)
Counter-ions that a name gives are not always drawn.

Columns and labels:
aqueous solubility = assay type: physicochemical; conditions: water, crystalline sodium salt
[1] = solid state characteristics of the crystalline sodium salt; assay type: physicochemical; conditions: non-hygroscopicity, physical stability, etc.
[2] = assay type: physicochemical
Protocol: Phase solubility experiments were conducted by adding excess amounts (20 mg/mL) of L-686,708, sodium salt, to aqueous solutions (pH=9) containing various amounts of cyclodextrin and mixing on a rotating mixer. After equilibration at room temperature for at least 48 hrs, aliquots of the mixture were centrifuged to separate the undissolved sodium salt. The supernatant was diluted and dissolved L-686,708 concentration measured by HPLC. […] This stability constant is a tentative measure of complex formation.

[3] = oral bioavailability, general statement; conditions: in vivo

Structure (SMILES): CC(C)(C)Sc1c(CC(C)(C)C(=O)O)n(Cc2ccc(Cl)cc2)c2ccc(OCc3ccc4ccccc4n3)cc12 [L-686,708 sodium salt, Crystalline 3-[N-(p-chlorobenzyl)-3-(t-butylthio)-5-(quinolin-2-ylmethoxy)indol-2-yl]-2.2-dimethylpropanoic acid, sodium salt]
- solubility (aqueous solubility): 5 to 30 µg/mL
- solid state characteristics (in words) [1]: good solid state characteristics, such as non-hygroscopicity, physical stability
- type of solubility curve (Higuchi) [2]: An -type
- oral bioavailability (in words) [3]: low oral bioavailability
